“And” between values parts separate entries of the source, which are not always exact repeats. Equal entries are not always repeated. Where two headings read alike, the source gives them in different places.
Key:
[1] = biological target: T1, PA ATP synthase (Pseudomonas aeruginosa, UniProt Q9HT15); experiment: NADH-driven ATP synthesis inhibition, PA inverted membrane vesicles; format: biochemical; settings: inhibition of ATP synthesis activity
T1 construct: Inverted membrane vesicles were prepared from PA 9027; endogenous in cells; host or cells: Pseudomonas aeruginosa ATCC 9027, inverted membrane vesicles
Protocol: (§1) Vesicles were prepared from P. aeruginosa and transformed E. coli cells as previously described.[22] Briefly, cells were grown in LB liquid medium at 37 °C with shaking and harvested by centrifugation after 7 h of growth. Cultures of transformant E. coli included 100 μg/mL ampicillin. Cells were disrupted in TMG buffer (50 mM Tris-HCl, MgCl2, 10% (v/v) glycerol, pH 7.5) using an Avestin B15 homogenizer at 19,000 psi. After unbroken cells and debris were cleared by centrifugation at 9000g, inverted vesicles were collected by centrifugation at 193,000g, resuspended in TMG buffer, and stored at −80 °C. Protein concentrations were determined using a modified Lowry assay.[25]
(§2) Continuous ATP synthesis activity of inverted membrane vesicles was measured using a luciferin/luciferase luminescence assay as previously described.[22] Inhibition of ATP synthesis activity by test compounds was determined using an end point assay essentially as previously described.[18],[26] In this assay, the synthesis reaction was initiated by 2.5 mM NADH, proceeded for 10 min, and was stopped with 1% trichloroacetic acid, 2 mM CCCP, and 10 mM EDTA. Samples from each reaction were diluted 500-fold prior to the addition of luciferase since quinoline compounds are known to inhibit luciferase.[27] This dilution was sufficient to minimize inhibition of luciferase (Figure S4). Each replicate set included a positive control containing DMSO with no compound and a negative control containing carbonyl cyanide m-chlorophenyl hydrazone. Luminescence values were corrected for the background by subtracting the negative control and then normalized to the positive control within the same replicate. Dose–response curves were fit using eq 1, where activity is the relative ATP synthesis activity, [I] is the concentration of inhibitor in μg/mL, and n is the Hill coefficient. [drawing 1] 1

[2] = biological target: T2, PA ATP synthase expressed in E. coli DK8/pASH20 (Pseudomonas aeruginosa, UniProt Q9HT15); experiment: NADH-driven ATP synthesis inhibition, DK8/pASH20 membrane vesicles; format: biochemical
T2 construct: expressed in transfected cells; host or cells: E. coli K-12 DK8 (lacks its own ATP synthase) transformed with pASH20 (pBR322 derivative)
Protocol: (§3) P. aeruginosa (ATCC 9027) was streaked onto a 10% TSB agar plate and incubated at room temperature for 72 h. A single colony was resuspended in 100 μL of H2O, and 5 μL was used as the DNA template for PCR with Q5 polymerase (NEB) and […] each of forward and reverse primers. Primers were complementary to regions flanking the atp operon and included sequences for HindIII and NdeI restriction sites (see the SI for primer sequences). The resulting 6.9 kbp DNA fragment was digested with HindIII and NdeI and ligated into digested vector pBR322 (New England Biolabs). The resultant pASH20(-i) plasmid contains a partial atpI gene. To complete the atpI gene, the HindII-XhoI fragment of pASH20(-i) was replaced with a synthetic fragment with a complete atpI (Twist Bioscience) to yield pASH20. The sequence of the entire operon was verified by Sanger DNA sequencing through the ligation sites. Subunit c mutations were introduced by exchanging the XhoI-BamHI fragment containing atpE with a synthetic fragment containing mutated atpE (Twist Bioscience).
as §1, §2

[3] = biological target: T3, PA ATP synthase cIle65Ala mutant (Pseudomonas aeruginosa, UniProt Q9HT15, I65A); experiment: NADH-driven ATP synthesis inhibition, DK8/pASH20 cI65A membrane vesicles; format: biochemical
T3 construct: expressed in transfected cells; host or cells: E. coli K-12 DK8 transformed with pASH20 carrying mutated atpE
Protocol: as §3, §1, §2

[4] = biological target: T4, PA ATP synthase cIle65Phe mutant (Pseudomonas aeruginosa, UniProt Q9HT15, I65F); experiment: NADH-driven ATP synthesis inhibition, DK8/pASH20 cI65F membrane vesicles; format: biochemical
T4 construct: expressed in transfected cells; host or cells: E. coli K-12 DK8 transformed with pASH20 carrying mutated atpE
Protocol: as §3, §1, §2

[5] = tested on: EC electron transport chain; experiment: Electron transport activity (NADH-driven H+ pumping, ACMA quenching), E. coli DK8/pASH20 vesicles; format: biochemical, Escherichia coli
Protocol: Determination of electron transport activity. In an opaque black 96-well plate, inverted membrane
vesicles from PA or E. coli DK8 pASH20 were added to HMK buffer containing 0.3 µg/mL 9-amino-6-chloro-
2-methoxyacridine (ACMA) and 0-64 µg/mL test compound in DMSO. After measurement of baseline
ACMA fluorescence for 60 s, redox-driven H+ pumping was initiated by addition of NADH to 0.8 mM, and
fluorescence quenching was monitored for 120 s before addition of nigericin to 0.5 µg/mL. Relative
activity is reported as the minimum fluorescence value normalized to the maximum fluorescence value
following addition of nigericin. […]

[6] = tested on: E. coli (ATCC 25922); design: method as in PMID 35990476; settings: cited from earlier work
[7] = tested on: P. aeruginosa (ATCC 9027); design: method as in PMID 35990476; settings: cited from earlier work
[8] = tested on: P. aeruginosa efflux knockout GKCW120 (PΔ6); design: method as in PMID 35990476; settings: cited from earlier work
[9] = biological target: T1, PA ATP synthase; design: method as in PMID 35990476; settings: PA membrane vesicles; cited from earlier work
[10] = tested on: PA electron transport chain; design: method as in PMID 35990476; settings: PA vesicles; cited from earlier work
[11] = tested on: P. aeruginosa (ATCC 9027); experiment: Antimicrobial susceptibility (broth microdilution), PA 9027; format: cell-based, Pseudomonas aeruginosa; settings: Pseudomonas aeruginosa, ATCC9027; n = 3; >85% reduction in growth at OD 590 nm; read-out: antibacterial activity (MIC) PA 9027
Protocol: (§4) The following are general steps, unless otherwise noted. All steps were completed using aseptic techniques. All media and glassware were sterilized via an autoclave at 121 °C for 60 min. All agitation occurred at 160 rpm in a temperature-controlled console shaker (Excella E25) at 37 °C. Full-strength tryptic soy broth (TSB) was made by dissolving 30 g of BD Bacto TSB powder in 1 L of deionized water. Purchased and acquired bacterial strains used were E. coli (ATCC 25922), P. aeruginosa (ATCC 9027), drug-resistant P. aeruginosa from ATCC Panel MP-23 (BAA 2108, BAA 2109, BAA 2110), and P. aeruginosa efflux knockout GKCW120 (PΔ6)[6] provided by Zgurskaya and co-workers at the University of Oklahoma.
(§5) Susceptibility testing was performed in biological triplicate using the broth microdilution method as outlined by the Clinical and Laboratory Standards Institute. […] Briefly, to each well, 1 μL of compound in DMSO, 89 μL of TSB, and 10 μL of bacterial inoculum, grown from a single colony in 10 mL of TSB for 4–6 h, were added. After incubation for 12–15 h at 37 °C, absorbance at 590 nm was read on a Biotek Synergy HTX Multimode plate reader. Data were processed by background subtracting the media absorbance and then normalizing the data to full bacterial growth with the vehicle only. MIC is defined as the lowest concentration of antibiotic or antibiotic/adjuvant combination that achieves ≥85% growth inhibition, which corresponds to no visible growth.
(§6) Initial antibacterial activity screen of compounds 4, 5, and S1-S6
(§7) Compounds 4, 5, and S1-S6 were screened for initial antibiotic activity against a susceptible laboratory strain of EC (designated EC 25922), and non-virulent, biofilm forming strain of PA (designated PA 9027), and PD6 (efflux knockout strain6) at 128 µg/mL in DMSO. Sterilization and Antimicrobial Susceptibility Assay procedures utilized were the same as described in the methods.
(§8) Table S1. Antibacterial activity screening results for compounds 4, 5, and S1-S6 at 128 µg/mL
(§9) Table S1. Antibacterial activity screening results for compounds 4, 5, and S1-S6 at 128 µg/mL.

[12] = tested on: P. aeruginosa efflux knockout GKCW120 (PΔ6); experiment: Antimicrobial susceptibility (broth microdilution), PΔ6 efflux knockout; format: cell-based, Pseudomonas aeruginosa; settings: n = 3; >85% reduction in growth at OD 590 nm
Protocol: as §4, §5, §6, §7, §8, §9

[13] = tested on: drug-resistant P. aeruginosa BAA 2108; experiment: Antimicrobial susceptibility (broth microdilution), BAA 2108; format: cell-based, Pseudomonas aeruginosa; settings: Pseudomonas aeruginosa, BAA2108, read-out: antibacterial activity (MIC) BAA 2108
Protocol: as §4, §5

[14] = tested on: drug-resistant P. aeruginosa BAA 2109; experiment: Antimicrobial susceptibility (broth microdilution), BAA 2109; format: cell-based, Pseudomonas aeruginosa; settings: Pseudomonas aeruginosa, BAA2109, read-out: antibacterial activity (MIC) BAA 2109
Protocol: as §4, §5

[15] = tested on: drug-resistant P. aeruginosa BAA 2110; experiment: Antimicrobial susceptibility (broth microdilution), BAA 2110; format: cell-based, Pseudomonas aeruginosa; settings: Pseudomonas aeruginosa, BAA2110, read-out: antibacterial activity (MIC) BAA 2110
Protocol: as §4, §5

[16] = inhibition of ATP synthesis activity

COC(=O)[C@H](Cc1ccc(O)cc1)NCc1cc2ccccc2nc1SC [Compound 1, reference compound]
Hill coefficient of dose response fit, PA vesicles [1]: 1.4 | IC50 ([2]; ATP synthesis IC50, DK8/pASH20 vesicles, wild-type PA ATP synthase in E. coli DK8, NADH-driven, end point luminescence assay): 27.7 µM and 28.8 µM | Hill coefficient of dose response fit, DK8/pASH20 vesicles [2, 16]: 1.3 | IC50 ([3]; ATP synthesis IC50, DK8/pASH20 cI65A vesicles, cI65A mutant, NADH-driven, luminescence assay): 18 µM | Hill coefficient of dose response fit, DK8/pASH20 cI65A vesicles [3, 16]: 1.1 | IC50 [4]: 22 µM | Hill coefficient of dose response fit, DK8/pASH20 cI65F vesicles [4, 16]: 1.4 | inhibition of EC ETC-driven H+ pumping, in words ([5]; 0-64 µg/mL, Figure S2): did not inhibit the electron transport chain strongly | Inhibition of the EC electron transport chain IC50 ([5]; EC (DK8/pASH20) vesicles): >64 µg/mL | antibacterial activity (MIC) EC 25922 [6]: >128 µg/mL | antibacterial activity (MIC) PA 9027 [7]: >256 µg/mL | antibacterial activity (MIC) PΔ6 [8]: >256 µg/mL | PA ATP synthesis IC50 [9]: 10.0 µg/mL | Inhibition of the PA electron transport chain IC50 [10]: >64[18] μg/mL

CNC(C)C1CCC(N)C(OC2C(N)CC(N)C(OC3OCC(C)(O)C(NC)C3O)C2O)O1 (stereo not shown) [gentamicin, reference compound]
MIC [11]: 2 to 4 µg/mL | antibacterial activity (MIC) PΔ6 [12]: >4 µg/mL | MIC [13]: 16 µg/mL | MIC [14]: 2 µg/mL | MIC [15]: 4 to 8 µg/mL
